Measurements reported in PubChem BioAssay AID328 (DTP/NCI, 2004).
Where “and” joins values, the source holds several entries; their conditions need not be identical. Identical values can stand only once. Toxic doses and inconclusive results are not listed.

System: BDF1 mice, P388 leukemia ip, median survival T/C
Test: NCI In Vivo Anticancer Drug Screen. Data for tumor model P388 Leukemia (intraperitoneal) in B6D2F1 (BDF1) mice
Settings: endpoint: median survival time, higher = longer survival
In short: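 Transplantable tumour in mice; compound vs vehicle dosing; survival scored; ratio of treated to control reported.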

[1] = dose: 20.0 mg/kg/injection, schedule: Q04DX003 (ip), vehicle: saline with Tween-80
[2] = dose: 100.0 mg/kg/injection, schedule: Q04DX003 (ip), vehicle: Klucel (hydroxypropylcellulose) (HPC)
[3] = dose: 200.0 mg/kg/injection, schedule: Q04DX003 (ip), vehicle: Klucel (hydroxypropylcellulose) (HPC)
[4] = dose: 400.0 mg/kg/injection, schedule: Q04DX003 (ip), vehicle: Klucel (hydroxypropylcellulose) (HPC)
[5] = dose: 6.25 mg/kg/injection, schedule: Q01DX009 (ip), vehicle: saline with Tween-80
[6] = dose: 12.5 mg/kg/injection, schedule: Q01DX009 (ip), vehicle: saline with Tween-80
[7] = dose: 12.5 mg/kg/injection, schedule: Q01DX009 (ip), vehicle: saline
[8] = dose: 50.0 mg/kg/injection, schedule: Q01DX009 (ip), vehicle: saline with Tween-80
[9] = dose: 100.0 mg/kg/injection, schedule: Q01DX009 (ip), vehicle: saline with Tween-80
[10] = dose: 200.0 mg/kg/injection, schedule: Q01DX009 (ip), vehicle: saline with Tween-80
[11] = dose: 50.0 mg/kg/injection, schedule: Q01DX009 (ip), vehicle: Klucel (hydroxypropylcellulose) (HPC)
[12] = dose: 400.0 mg/kg/injection, schedule: Q01DX009 (ip), vehicle: saline with Tween-80

Compound: Nc1cc(C(=O)Nc2ccc(CCNC3=NCCN3)cc2)ccc1C(=O)Nc1ccc(CCNC2=NCCN2)cc1
- T/C (dose: 2.6 mg/kg/injection, schedule: Q01DX009 (ip), vehicle: saline with Tween-80): 123 % of control
- T/C (dose: 5.0 mg/kg/injection, schedule: Q04DX003 (ip), vehicle: saline with Tween-80): 109 % of control and 113 % of control
- T/C (dose: 6.0 mg/kg/injection, schedule: Q01DX009 (ip), vehicle: saline with Tween-80): 157 % of control
- T/C (dose: 6.7 mg/kg/injection, schedule: Q01DX009 (ip), vehicle: saline with Tween-80): 157 % of control
- T/C (dose: 8.0 mg/kg/injection, schedule: Q04DX003 (ip), vehicle: saline with Tween-80): 118 % of control
- T/C (dose: 10.0 mg/kg/injection, schedule: Q01DX009 (ip), vehicle: saline with Tween-80): 192 % of control and 215 % of control
- T/C (dose: 10.0 mg/kg/injection, schedule: Q04DX003 (ip), vehicle: saline with Tween-80): 109 % of control
- T/C (dose: 12.0 mg/kg/injection, schedule: Q04DX003 (ip), vehicle: saline with Tween-80): 118 % of control
- T/C (dose: 15.0 mg/kg/injection, schedule: Q01DX009 (ip), vehicle: saline with Tween-80): 230 % of control
- T/C (dose: 18.0 mg/kg/injection, schedule: Q04DX003 (ip), vehicle: saline with Tween-80): 150 % of control and 163 % of control
- T/C (dose: 20.0 mg/kg/injection, schedule: Q01DX009 (ip), vehicle: saline with Tween-80): 230 % of control
- T/C [1]: 163 % of control
- T/C (dose: 26.0 mg/kg/injection, schedule: Q04DX003 (ip), vehicle: saline with Tween-80): 150 % of control and 177 % of control
- T/C (dose: 40.0 mg/kg/injection, schedule: Q04DX003 (ip), vehicle: saline with Tween-80): 250 % of control and 200 % of control
- T/C (dose: 60.0 mg/kg/injection, schedule: Q04DX003 (ip), vehicle: saline with Tween-80): 162 % of control

Compound: CC(=O)N1CSCC1C(=O)O (stereo unspecified)
- T/C [2]: 100 % of control
- T/C [3]: 100 % of control
- T/C [4]: 100 % of control

Compound: CO[C@@H]1[C@H](O)CC[C@]2(CO2)[C@H]1[C@@]1(C)O[C@@H]1CC=C(C)C
- T/C (dose: 3.13 mg/kg/injection, schedule: Q01DX009 (ip), vehicle: saline with Tween-80): 100 % of control
- T/C [5]: 97 % of control
- T/C [6]: 106 % of control
- T/C [7]: 98 % of control
- T/C (dose: 37.5 mg/kg/injection, schedule: Q01DX009 (ip), vehicle: saline with Tween-80): 100 % of control

Compound: O=S1(=O)CC(S(=O)(=O)c2ccccc2)C1
- T/C (dose: 100.0 mg/kg/injection, schedule: Q01DX001 (ip), vehicle: saline with Tween-80): 99 % of control
- T/C (dose: 200.0 mg/kg/injection, schedule: Q01DX001 (ip), vehicle: saline with Tween-80): 103 % of control
- T/C (dose: 400.0 mg/kg/injection, schedule: Q01DX001 (ip), vehicle: saline with Tween-80): 100 % of control

Compound: CC(=O)C1=CN(Cc2ccccc2)C(O)CC1C(N)=O (stereo unspecified)
- T/C [8]: 101 % of control
- T/C [9]: 109 % of control
- T/C [10]: 115 % of control

Compound: CCCCN1C(=O)C2CC=C3C=CN4C(C3C2C1=O)C1C(=O)N(CCCC)C(=O)C1C41CC(=O)N(CCCC)C1=O (stereo unspecified)
- T/C [11]: 104 % of control
- T/C (dose: 100.0 mg/kg/injection, schedule: Q01DX009 (ip), vehicle: Klucel (hydroxypropylcellulose) (HPC)): 100 % of control
- T/C [2]: 100 % of control
- T/C (dose: 200.0 mg/kg/injection, schedule: Q01DX009 (ip), vehicle: Klucel (hydroxypropylcellulose) (HPC)): 90 % of control
- T/C [3]: 91 % of control

Compound: N#CN=CN1CCC(O)(c2ccccc2)CC1
- T/C [8]: 88 % of control
- T/C [9]: 88 % of control
- T/C [10]: 94 % of control

Compound: O=C(CI)Nc1ccc(O)c2ccccc12
- T/C (dose: 0.78 mg/kg/injection, schedule: Q01DX009 (ip), vehicle: water): 97 % of control
- T/C (dose: 1.56 mg/kg/injection, schedule: Q01DX009 (ip), vehicle: water): 106 % of control
- T/C (dose: 3.12 mg/kg/injection, schedule: Q01DX009 (ip), vehicle: water): 106 % of control
- T/C (dose: 6.25 mg/kg/injection, schedule: Q01DX009 (ip), vehicle: water): 108 % of control
- T/C (dose: 6.25 mg/kg/injection, schedule: Q04DX003 (ip), vehicle: water): 89 % of control
- T/C (dose: 12.5 mg/kg/injection, schedule: Q01DX009 (ip), vehicle: water): 123 % of control
- T/C (dose: 12.5 mg/kg/injection, schedule: Q04DX003 (ip), vehicle: water): 99 % of control
- T/C (dose: 25.0 mg/kg/injection, schedule: Q04DX003 (ip), vehicle: water): 104 % of control

Compound: c1cc[c]([Sb]([c]2ccccc2)[c]2ccccc2)cc1
- T/C [1]: 120 % of control

Compound: COc1cc(Br)cc(/C=C/[N+](=O)[O-])c1OC
- T/C [5]: 113 % of control
- T/C [6]: 118 % of control
- T/C (dose: 25.0 mg/kg/injection, schedule: Q01DX009 (ip), vehicle: saline with Tween-80): 109 % of control

Compound: O=C1CC2C3Nc4ccccc4C3CCN2C2=C1CC(OC(=O)c1ccccc1)CC2 (stereo unspecified)
- T/C [8]: 104 % of control
- T/C [9]: 104 % of control
- T/C [10]: 86 % of control

Compound: Cc1ccc(S(=O)(=O)OCCN(CCOS(=O)(=O)c2ccc(C)cc2)c2ccc(N=O)cc2)cc1
- T/C (dose: 66.0 mg/kg/injection, schedule: Q04DX003 (ip), vehicle: saline sonified): 195 % of control
- T/C (dose: 100.0 mg/kg/injection, schedule: Q04DX003 (ip), vehicle: saline sonified): 200 % of control
- T/C (dose: 150.0 mg/kg/injection, schedule: Q04DX003 (ip), vehicle: saline sonified): 216 % of control

Compound: CC(=O)OCCC(CCOC(C)=O)=C1N=C(c2ccccc2)OC1=O
- T/C [9]: 120 % of control
- T/C (dose: 300.0 mg/kg/injection, schedule: Q01DX009 (ip), vehicle: saline with Tween-80): 118 % of control
- T/C [12]: 116 % of control

Compound: O=[N+]([O-])/C=C/c1ccc([N+](=O)[O-])cc1Cl
- T/C (dose: 12.5 mg/kg/injection, schedule: Q01DX009 (ip), vehicle: Klucel (hydroxypropylcellulose) (HPC)): 109 % of control
- T/C (dose: 25.0 mg/kg/injection, schedule: Q01DX009 (ip), vehicle: Klucel (hydroxypropylcellulose) (HPC)): 109 % of control
- T/C (dose: 25.0 mg/kg/injection, schedule: Q04DX003 (ip), vehicle: Klucel (hydroxypropylcellulose) (HPC)): 115 % of control
- T/C [11]: 104 % of control
- T/C (dose: 50.0 mg/kg/injection, schedule: Q04DX003 (ip), vehicle: Klucel (hydroxypropylcellulose) (HPC)): 107 % of control
- T/C [2]: 88 % of control

Compound: CC12C(C#N)=C(c3ccccc3)C=C(c3ccccc3)C1=C(c1ccccc1)c1ccccc12 (stereo unspecified)
- T/C [2]: 108 % of control
- T/C [3]: 95 % of control
- T/C [4]: 91 % of control

Compound: CS(=O)(=O)Nc1ccc(C(=O)CCN2CCCCCC2)cc1
- T/C (dose: 25.0 mg/kg/injection, schedule: Q01DX009 (ip), vehicle: saline): 108 % of control and 110 % of control
- T/C (dose: 50.0 mg/kg/injection, schedule: Q01DX009 (ip), vehicle: saline): 110 % of control and 112 % of control and 113 % of control
- T/C (dose: 100.0 mg/kg/injection, schedule: Q01DX009 (ip), vehicle: saline): 117 % of control
- T/C (dose: 200.0 mg/kg/injection, schedule: Q01DX009 (ip), vehicle: saline): 117 % of control

Compound: NC1CCCCC1.[O]=[Cr](=[O])([OH])[OH]
- T/C (dose: 6.25 mg/kg/injection, schedule: Q01DX009 (ip), vehicle: saline): 100 % of control
- T/C [7]: 90 % of control

Compound: COC(=O)c1ccc([N+](=O)[O-])c(OC)c1
- T/C (dose: 75.0 mg/kg/injection, schedule: Q04DX003 (ip), vehicle: saline): 100 % of control
- T/C (dose: 150.0 mg/kg/injection, schedule: Q04DX003 (ip), vehicle: saline): 100 % of control
- T/C (dose: 300.0 mg/kg/injection, schedule: Q04DX003 (ip), vehicle: saline): 104 % of control

Compound: COC(=O)c1cc(C(C)=O)ccc1OC(=O)c1ccccc1
- T/C [9]: 118 % of control
- T/C (dose: 100.0 mg/kg/injection, schedule: Q04DX003 (ip), vehicle: saline with Tween-80): 100 % of control
- T/C [10]: 104 % of control
- T/C (dose: 200.0 mg/kg/injection, schedule: Q04DX003 (ip), vehicle: saline with Tween-80): 100 % of control
- T/C [12]: 104 % of control
- T/C (dose: 400.0 mg/kg/injection, schedule: Q04DX003 (ip), vehicle: saline with Tween-80): 100 % of control

Compound: COc1cccc2c1CCC1C2CC=C2CC3(CCC21C)OCCO3 (stereo unspecified)
- T/C (dose: 50.0 mg/kg/injection, schedule: Q04DX003 (sc), vehicle: steriod suspending solution): 100 % of control
- T/C (dose: 100.0 mg/kg/injection, schedule: Q04DX003 (sc), vehicle: steriod suspending solution): 104 % of control
- T/C (dose: 200.0 mg/kg/injection, schedule: Q04DX003 (sc), vehicle: steriod suspending solution): 91 % of control
- T/C (dose: 400.0 mg/kg/injection, schedule: Q04DX003 (sc), vehicle: steriod suspending solution): 100 % of control
